# ChEMBL document CHEMBL4613209, “Quinolone hybrids and their anti-cancer activities: An overview” (Eur J Med Chem, 2019)
# How the values were obtained:
# HL-60 [1] = assay: Antiproliferative activity against human HL60 cells by MTT assay; type: functional, cell-based
# SMMC-7721 = assay: Antiproliferative activity against human SMMC7721 cells by MTT assay; type: functional, cell-based
# L1210 = assay: Antiproliferative activity against mouse L1210 cells by MTT assay; type: functional, cell-based
# HL-60 [2] = assay: Antiproliferative activity against human HL60 cells after 72 hrs by MTT assay; type: functional, cell-based; conditions: HL-60, 72 h
# PC-3 = assay: Cytotoxicity against human PC3 cells assessed as reduction in cell viability; type: functional, cell-based
# HepG2 = assay: Cytotoxicity against human HepG2 cells assessed as reduction in cell viability; type: functional, cell-based
# NCI-H460 = assay: Cytotoxicity against human NCI-H460 cells assessed as reduction in cell viability; type: functional, cell-based
# MGC-803 = assay: Cytotoxicity against human MGC803 cells assessed as reduction in cell viability; type: functional, cell-based
# SW-620 = assay: Cytotoxicity against human SW620 cells assessed as reduction in cell viability; type: functional, cell-based
# GES1 = assay: Cytotoxicity against human GES-1 cells assessed as reduction in cell viability; type: cell-based
# MCF7 = assay: Cytotoxicity against human MCF7 cells assessed as reduction in cell viability; type: functional, cell-based
# A549 = assay: Antiproliferative activity against human A549 cells after 72 hrs by MTT assay; type: functional, cell-based; conditions: A549, 72 h
Compound,IC50 (HL-60 [1]) [nM],IC50 (SMMC-7721) [nM],IC50 (L1210) [nM],IC50 (HL-60 [2]) [nM],IC50 (PC-3) [nM],IC50 (HepG2) [nM],IC50 (NCI-H460) [nM],IC50 (MGC-803) [nM],IC50 (SW-620) [nM],IC50 (GES1) [nM],IC50 (MCF7) [nM],IC50 (A549) [nM]
O=C(O)c1cn(C2CC2)c2c(c1=O)C=C(F)C1=NN=C(c3ccc([N+](=O)[O-])cc3)CN12,1000 to 48600,1000,3500,,,,,,,,,
CCc1c2c(nc3ccc(OC(=O)N4CCC(N5CCCCC5)CC4)cc13)-c1cc3c(c(=O)n1C2)COC(=O)[C@]3(O)CC [IRINOTECAN],,,,32 to 44,,,,,,,,
C[C@H]1COc2c(N3CCN(C)CC3)c(F)cc3c(=O)c(-c4nnc(NC(=O)CCCC(=O)O)s4)cn1c23,,,,,1100 to 14300,1100 to 14300,1100 to 14300,1100 to 14300,1100 to 14300,> 81500,1100 to 14300,
O=C(O)c1cn(C2CC2)c2c(c1=O)C=C(F)C1=NN=C(c3ccc(F)cc3)CN12,1000 to 48600,1000 to 48600,1000 to 48600,,,,,,,,,
C[C@H]1COc2c(N3CCN(C)CC3)c(F)cc3c(=O)c(-c4nnc(NC(=O)CCCCCCCC(=O)O)s4)cn1c23,,,,,1100 to 14300,1100 to 14300,1100 to 14300,1100 to 14300,1100 to 14300,> 81500,1100 to 14300,
Cc1ccc(S(=O)(=O)NC(=N)N2CCN(c3cc4c(cc3F)c(=O)c(C(=O)O)cn4C3CC3)CC2)cc1,,,,32 to 161,,,,,,,,32 to 161
O=C(O)c1cn(C2CC2)c2c(c1=O)C=C(F)C1=NN=C(c3cccc(Cl)c3)CN12,1000 to 48600,1000 to 48600,1000 to 48600,,,,,,,,,
CCn1cc(C(=O)O)c(=O)c2cc(F)c(N3CCN(C(=N)NS(=O)(=O)c4cccc(Cl)c4)CC3)cc21,,,,32 to 161,,,,,,,,32 to 161
C[C@H]1COc2c(N3CCN(C)CC3)c(F)cc3c(=O)c(-c4nnc(NC(=O)CCCCCCCCC(=O)O)s4)cn1c23,,,,,1100 to 14300,1100 to 14300,1100 to 14300,1100 to 14300,1100 to 14300,> 81500,1100 to 14300,
N=C(NS(=O)(=O)c1cccc(Cl)c1)N1CCN(c2cc3c(cc2F)c(=O)c(C(=O)O)cn3C2CC2)CC1,,,,32 to 161,,,,,,,,32 to 161
C[C@H]1COc2c(N3CCN(C)CC3)c(F)cc3c(=O)c(-c4nnc(NC(=O)CCCCCCCCC(=O)Nc5ccccc5N)s4)cn1c23,,,,,46 to 203,46 to 203,46 to 203,46 to 203,46 to 203,> 81500,46 to 203,
Nc1ccc(C2=NN=C3C(F)=Cc4c(n(C5CC5)cc(C(=O)O)c4=O)N3C2)cc1,1000 to 48600,1000 to 48600,1000 to 48600,,,,,,,,,
CCn1cc(C(=O)O)c(=O)c2cc(F)c(N3CCN(C(=N)NS(=O)(=O)c4ccc(C(F)(F)F)cc4)CC3)cc21,,,,32 to 161,,,,,,,,32 to 161
CCn1cc(C(=O)O)c(=O)c2cc(F)c(N3CCN(C(=N)NS(=O)(=O)c4ccccc4Cl)CC3)cc21,,,,32 to 79,,,,,,,,32 to 79
C[C@H]1COc2c(N3CCN(C)CC3)c(F)cc3c(=O)c(-c4nnc(NC(=O)CCCCCCC(=O)NO)s4)cn1c23,,,,,600 to 3100,600 to 3100,600 to 3100,600 to 3100,600 to 3100,> 100000,600 to 3100,
C[C@H]1COc2c(N3CCN(C)CC3)c(F)cc3c(=O)c(-c4nnc(NC(=O)CCCCCCCC(=O)Nc5ccccc5N)s4)cn1c23,,,,,46 to 203,46 to 203,46 to 203,46 to 203,46 to 203,> 81500,46 to 203,
C[C@H]1COc2c(N3CCN(C)CC3)c(F)cc3c(=O)c(-c4nnc(NC(=O)CCCCCC(=O)NO)s4)cn1c23,,,,,19 to 127,19 to 127,19 to 127,19 to 127,19 to 127,> 81500,19 to 127,
C[C@H]1COc2c(N3CCN(C)CC3)c(F)cc3c(=O)c(-c4nnc(NC(=O)CCCCCC(=O)O)s4)cn1c23,,,,,1100 to 14300,1100 to 14300,1100 to 14300,1100 to 14300,1100 to 14300,> 81500,1100 to 14300,
C[C@H]1COc2c(N3CCN(C)CC3)c(F)cc3c(=O)c(-c4nnc(NC(=O)CCCCC(=O)O)s4)cn1c23,,,,,1100 to 14300,1100 to 14300,1100 to 14300,1100 to 14300,1100 to 14300,> 81500,1100 to 14300,
CCn1cc(C(=O)O)c(=O)c2cc(F)c(N3CCN(C(=N)NS(=O)(=O)c4ccc(Cl)cc4)CC3)cc21,,,,32 to 161,,,,,,,,32 to 161
C[C@H]1COc2c(N3CCN(C)CC3)c(F)cc3c(=O)c(-c4nnc(NC(=O)CCCCCCCC(=O)NO)s4)cn1c23,,,,,19 to 127,19 to 127,19 to 127,19 to 127,19 to 127,> 81500,19 to 127,
N=C(NS(=O)(=O)c1ccccc1Cl)N1CCN(c2cc3c(cc2F)c(=O)c(C(=O)O)cn3C2CC2)CC1,,,,32 to 79,,,,,,,,32 to 79
